Read-outs that look alike come from different tables or passages of the source.
How the values were obtained:
MCF-7 = experiment: MTT antiproliferative assay, MCF-7; type: cell-based, human; conditions: for inhibition at 10 µM: MCF7, 10 µM; for inhibition at 30 µM: MCF7, 30 µM; for IC50: read-out: calculated IC50 MCF-7
Protocol: (§1) We evaluated the cytotoxic activity of the newly synthesised arylated compounds 13–17 by the MTT assay[37] on a panel of human adherent cancer cell lines. The panel included breast (MCF-7 and MDA MB-231) and cervical (HeLa, SiHa and C33A) cancer cell lines differing in receptorial or HPV status. Tumour selectivity was determined on the NIH/3T3 mouse fibroblast cell line.
(§2) Briefly, the panels of breast and cervical cancerous cell lines, differing by their receptorial and HPV status were used, precisely MCF-7 (ER, PR and HER2 positive) and MDA-MB-231 (TNBC) breast carcinoma and HeLa (HPV18+), SiHa (HPV16+), C33A (HPV-) cervical carcinoma cells. Non-cancerous NIH/3T3 mouse fibroblast cell line was used for selectivity study. MCF-7, MDA-MB-231, Hela and NIH/3T3 cell lines were purchased from ECACC (European Collection of Cell Cultures, Salisbury, UK), while SiHa and C33A from ATCC (American Tissue Culture Collection, LGC Standards GmbH, Wesel, Germany). Cells were maintained in Eagle's Minimum Essential Medium (EMEM, Capricorn Scientific GmbH, Ebsdorfergrund, Germany) supplemented with 10% heat-inactivated fetal bovine serum (FBS), 1% non-essential amino acids (NEAA), and 1% antibiotic-antimycotic mixture (penicillin–streptomycin). The cells were maintained at 37 °C in a humidified atmosphere containing 5% CO2.
(§3) For measurements cells were seeded for 96-well plates at a density of 5 000/well, except for C33A, which was seeded in 10 000cells for each well. After overnight standing cells were treated with 10 and 30 µM solutions for screening and increasing concentrations (0.1-30.0 µM) of the test compounds were used for concentration-response curves. After incubation for 72 hours under cell culturing condition 5 mg/ml MTT (3-(4,5-[…])-2,5-diphenyl-2H-tetrazolium bromide) solution was added for another 4 h. The precipitated formazan crystals were solubilized in DMSO and the absorbance was measured at 545 nm with a microplate reader (BMG Labtech, Ortenberg, Germany). Wells with untreated cells were utilized as control, and inhibition % were calculated by GraphPad Prism v 9.0 software (GraphPad Software, San Diego, CA, USA). If the growth-inhibition exceeded 70% at 30 µM concentration during the screening concentration-response curves were fitted and IC50 values were calculated by GraphPad Prism v 9.0. The experiments were performed with five parallel wells for each experimental condition and repeated at least twice.

MDA-MB-231 = experiment: MTT antiproliferative assay, MDA-MB-231; type: cell-based, human; conditions: for inhibition at 10 µM: MDA-MB-231, 10 µM; for inhibition at 30 µM: MDA-MB-231, 30 µM; for IC50: read-out: calculated IC50 MDA-MB-231
Protocol: as §1, §2, §3

HeLa = experiment: MTT antiproliferative assay, HeLa; type: cell-based, human; conditions: 72 h; for IC50: read-out: calculated IC50 HeLa
Protocol: as §1, §2, §3

SiHa = experiment: MTT antiproliferative assay, SiHa; type: cell-based, human; conditions: 72 h; for IC50: read-out: calculated IC50 SiHa
Protocol: as §1, §2, §3

C33A = experiment: MTT antiproliferative assay, C33A; type: cell-based, human; conditions: 72 h; for IC50: read-out: calculated IC50 C33A
Protocol: as §1, §2, §3

[1] = system: NIH/3T3 mouse fibroblast cell line; experiment: MTT assay, tumour selectivity on non-cancerous fibroblasts; type: cell-based; conditions: for inhibition at 10 µM: NIH3T3, 10 µM; for inhibition at 30 µM: NIH3T3, 30 µM; for IC50: read-out: calculated IC50 NIH/3T3
Protocol: as §1, §2, §3

17β-HSD1 = target: T1, 17β-HSD1 (Homo sapiens, UniProt P14061); experiment: 17β-HSD1 enzymatic assay (E1 to E2, LC-MS/MS); type: biochemical; conditions: for inhibition at 100 µM / inhibition at 10 µM: read-out: 17β-HSD1 Inhibition (% ± SD)
T1 sequence (P14061 1-328): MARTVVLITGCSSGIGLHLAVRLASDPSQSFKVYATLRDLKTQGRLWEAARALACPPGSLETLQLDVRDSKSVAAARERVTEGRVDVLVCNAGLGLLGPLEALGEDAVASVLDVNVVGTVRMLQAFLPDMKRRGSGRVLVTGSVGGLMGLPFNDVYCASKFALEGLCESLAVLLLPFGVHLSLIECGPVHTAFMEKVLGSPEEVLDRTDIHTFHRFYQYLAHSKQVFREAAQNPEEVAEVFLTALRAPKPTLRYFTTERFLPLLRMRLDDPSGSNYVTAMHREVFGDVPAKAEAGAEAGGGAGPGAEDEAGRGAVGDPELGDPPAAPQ
Protocol: The bacterial homogenate of E. coli overexpressing HSD17B1 was previously prepared as described in references ^S2,S3, and stored in aliquots at -80 °C. Before conducting experiments, aliquots were quickly thawed and diluted twice with 100 mM sodium phosphate buffer (pH 6.5; #14457, #1411007, Kemika), then kept on ice. The enzymatic assay was performed as described in ^S3. Briefly, a 1 mL enzymatic reaction mixture was prepared in 2 mL microcentrifuge tubes with the following components: 10 µL of the test inhibitor dissolved in dimethyl sulfoxide (DMSO; #276855, Sigma Aldrich) or 10 µL of DMSO for control samples, 5 µL of 14 µM substrate estrone (E1; CAS 53-16-7; #E2300-000, Steraloids), 10 µL of 10 mM NADPH (#AE14, Carl Roth) prepared in 100 mM sodium phosphate buffer, and 965 µL of 100 mM sodium phosphate buffer (pH 6.5). The reaction mixture was mixed thoroughly before adding 10 µL of bacterial homogenate. Immediately after addition, the tubes were transferred to an Eppendorf thermoshaker (#5382000031, Eppendorf) and incubated at 37 °C for 10 minutes. To stop the reaction, 60 µL of 1.26 M ascorbic acid (#A92902, Sigma Aldrich) in methanol (#34966, Honeywell/Riedel-de Haen) /acetic acid (#1.00063, Merck) (99:1, v/v) was added. The samples were then immediately processed using solid-phase extraction (SPE). The assay was repeated in three independent experiments, with each experiment performed in technical duplicate.
The preparation of samples for liquid chromatography-tandem mass spectrometry (LC-MS/MS) involved SPE. Stock solutions of E1 and 17β-estradiol (E2; CAS: 50-28-2; #142406, Steraloids) were prepared gravimetrically and dissolved in methanol (#34966, Honeywell/Riedel-de Haen). A working calibrator solution containing both steroids was then prepared by mixing appropriate volumes of the stock solutions in methanol to achieve a final concentration of 1 µg/mL for each steroid. Eight-point calibration curves (excluding zero and blank) were prepared in 100 mM sodium phosphate buffer (pH 6.5). For each 1 mL reaction mixture or calibrator, 10 µL of 100 ng/mL internal standard solution containing [2,3,4-13C3]-17β-estradiol (#719552, Sigma Aldrich) was added. Samples were mixed thoroughly and incubated at room temperature for 15 minutes.
SPE was performed using Strata X 33 µm polymeric reversed-phase columns (30 mg/mL tubes; #8B-S100-TAK, Phenomenex). The procedure involved the following steps: column conditioning with 1 mL of methanol, column equilibration with 1 mL of H₂O (#1.15333, Supelco), sample loading (1 mL sample or calibrator), column washing with 1 mL of H₂O, column drying under high vacuum for 10 minutes, and finally elution with 1 mL of methanol directly into HPLC glass vials (#702713, Macherey-Nagel GmbH/Co). The eluted samples were stored at -20 °C until LC-MS/MS analysis.

| SMILES | inhibition at 10 µM (MCF-7; Homo sapiens, 72 h) [%] | inhibition at 30 µM (MCF-7; Homo sapiens, 72 h) [%] | inhibition at 10 µM (MDA-MB-231; Homo sapiens, 72 h) [%] | inhibition at 30 µM (MDA-MB-231; Homo sapiens, 72 h) [%] | inhibition at 10 µM (HeLa; Homo sapiens, HeLa) [%] | inhibition at 30 µM (HeLa; Homo sapiens, HeLa) [%] | inhibition at 10 µM (SiHa; Homo sapiens, SiHa) [%] | inhibition at 30 µM (SiHa; Homo sapiens, SiHa) [%] | inhibition at 10 µM (C33A; Homo sapiens, C-33-A) [%] | inhibition at 30 µM (C33A; Homo sapiens, C-33-A) [%] | inhibition at 10 µM ([1]; Mus musculus, 72 h) [%] | inhibition at 30 µM ([1]; Mus musculus, 72 h) [%] | inhibition at 10 µM (17β-HSD1; 10 µM test concentration) [%] | also measured |
| --- | --- | --- | --- | --- | --- | --- | --- | --- | --- | --- | --- | --- | --- | --- |
| CN(C)C(=O)Oc1cc2c(c(-c3ccccc3)c1)[C@H]1CC[C@@]3(C)C(=O)CC[C@H]3[C@@H]1CC2 [13a, 3-(N,N-Dimethylcarbamoyloxy)-1-phenyl-13α-estra-1,3,5(10)-triene-17-one] | 22.5 | 52.8 | < 10 | 41 | 30.9 | 59.9 | 13.7 | 41 | < 10 | 27.2 | 13.5 | 22.5 | – | 17β-HSD1 Inhibition (% ± SD) (17β-HSD1; 10 µM test concentration): No inhibition; inhibition at 100 µM (17β-HSD1): 33.6 ± 14.9% |
| C[C@@]12CC[C@@H]3c4ccc(O)c(-c5ccccc5)c4CC[C@H]3[C@@H]1CCC2=O [4-Ph, reference compound] | – | – | – | – | – | – | – | – | – | – | – | – | 41.4 ± 0.2 | inhibition at 100 µM (17β-HSD1; 100 µM test concentration): 52.1 ± 17.4% |
| CCCCOC1(c2cc(=O)c3c(Oc4ccc(Br)cc4)cc(O)cc3o2)C=CC(=O)C=C1 [17b, 5-(4-Bromophenoxy)-2-(1-butoxy-4-oxocyclohexa-2,5-dienyl)-7-hydroxy-chromen-4-one] | 97.4 | 98.4 | 97 | 97.9 | 97 | 97.7 | 84.5 | 93.8 | 97.7 | 97.8 | 97.5 | 98.6 | – | IC50 (MCF-7; Homo sapiens, MCF7, 72 h): 1.15 µM; IC50 (MDA-MB-231; Homo sapiens, MDA-MB-231, 72 h): 0.73 µM; IC50 (HeLa; Homo sapiens, HeLa): 1.09 µM; IC50 (SiHa; Homo sapiens, SiHa): 1.39 µM; IC50 (C33A; Homo sapiens, C-33-A): 0.52 µM; IC50 ([1]; Mus musculus, NIH3T3, 72 h): 1.61 µM |
| C[C@]12CC[C@H]3C(=CCc4cc(O)ccc43)[C@@H]1CCC2=O [Equilin, reference compound] | – | – | – | – | – | – | – | – | – | – | – | – | 85.9 ± 1.6 | – |
| N.N.[Cl][Pt][Cl] [Cisplatin, reference compound] | – | – | – | – | – | – | – | – | – | – | – | – | – | IC50 (MCF-7; 72 h): 5.8 µM; IC50 (MDA-MB-231; 72 h): 19.1 µM; IC50 (HeLa): 12.4 µM; IC50 (SiHa): 7.8 µM; IC50 (C33A): 3.7 µM; IC50 ([1]; 72 h): 4.7 µM |
| C[C@@]12CC[C@@H]3c4cc(-c5ccccc5)c(O)cc4CC[C@H]3[C@@H]1CCC2=O [2-Ph] | – | – | – | – | – | – | – | – | – | – | – | – | 54 ± 7.8 | inhibition at 100 µM (17β-HSD1; 100 µM test concentration): 59.4 ± 7.8% |
| CCCCOC1(c2cc(=O)c3c(Oc4ccccc4)cc(O)cc3o2)C=CC(=O)C=C1 [17a, 2-(1-Butoxy-4-oxocyclohexa-2,5-dienyl)-7-hydroxy-5-phenoxy-chromen-4-one] | 93.1 | 93.7 | 95.7 | 96.9 | 93.6 | 94.3 | 86.2 | 95 | 98.1 | 98.5 | 94.2 | 98.7 | – | IC50 (MCF-7; Homo sapiens, MCF7, 72 h): 0.97 µM; IC50 (MDA-MB-231; Homo sapiens, MDA-MB-231, 72 h): 0.72 µM; IC50 (HeLa; Homo sapiens, HeLa): 1.16 µM; IC50 (SiHa; Homo sapiens, SiHa): 1.29 µM; IC50 (C33A; Homo sapiens, C-33-A): 0.43 µM; IC50 ([1]; Mus musculus, NIH3T3, 72 h): 2.33 µM |
| C[C@@]12CC[C@@H]3c4c(cc(OCc5cn(Cc6ccccc6)nn5)cc4-c4ccc(Br)cc4)CC[C@H]3[C@@H]1CCC2=O [compound 16, 3-[{1-Benzyl-1H-1,2,3-triazol-4-yl}methoxy]-1-(4-bromophenyl)-13a-estra-1,3,5 (10)-trien-17-one] | < 10 | < 10 | < 10 | < 10 | 22.4 | 33.1 | < 10 | 10.4 | < 10 | < 10 | < 10 | 11.2 | – | – |
